# Laboratory results reported in ChEMBL document CHEMBL1201862, “PubChem BioAssay data set” (2004).
#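 Cultured in 96-well plates, cells were exposed to test compound for 48 hours across five concentrations. The concentration for 50% growth inhibition is given as GI50.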 Activity calls are given as the source filed them. Rule as the data show it: active = GI50 up to about 1.1 µM and inactive = higher.
# Key:
# Assay in all cases: DTP human tumour cell line panel, 48 h
# Hs-578T = system: Hs-578T
# T47D = system: T47D
# TK-10 = system: TK-10
# MDA-MB-435 = system: MDA-MB-435
# COLO 205 = system: COLO 205
# M14 = system: M14
# EKVX = system: EKVX
# NCI-H23 = system: NCI-H23
# Malme-3M = system: Malme-3M
# MCF7 = system: MCF7
# HCC 2998 = system: HCC 2998
# ACHN = system: ACHN
# SNB-19 = system: SNB-19
# A498 = system: A498
# DU-145 = system: DU-145
# MDA-N = system: MDA-N
# PC-3 = system: PC-3
# MOLT-4 = system: MOLT-4
# KM12 = system: KM12
# UO-31 = system: UO-31
# BT-549 = system: BT-549
# OVCAR-8 = system: OVCAR-8
# OVCAR-5 = system: OVCAR-5
# HL-60 = system: HL-60
# 786-0 = system: 786-0
# CAKI-1 = system: CAKI-1
# NCI-H460 = system: NCI-H460
# HOP-62 = system: HOP-62
# HOP-92 = system: HOP-92
# SK-MEL-28 = system: SK-MEL-28
# SF-268 = system: SF-268
# NCI-H522 = system: NCI-H522
# SR = system: SR
# SK-MEL-5 = system: SK-MEL-5
# SF-539 = system: SF-539
# RXF 393 = system: RXF 393
# OVCAR-4 = system: OVCAR-4
# CCRF-CEM = system: CCRF-CEM
# HCT-116 = system: HCT-116
# HCT-15 = system: HCT-15
# K562 = system: K562
# HT-29 = system: HT-29
# UACC-62 = system: UACC-62
# NCI/ADR-RES = system: NCI/ADR-RES
# SF-295 = system: SF-295
# SW-620 = system: SW-620
# NCI-H226 = system: NCI-H226
# SK-MEL-2 = system: SK-MEL-2
# U-251 = system: U-251
# OVCAR-3 = system: OVCAR-3
# MDA-MB-231 = system: MDA-MB-231
# LOX IMVI = system: LOX IMVI
# RPMI-8226 = system: RPMI-8226
# A549 = system: A549
# SN12C = system: SN12C
# IGROV-1 = system: IGROV-1
# UACC-257 = system: UACC-257
# SNB-75 = system: SNB-75
smiles,measurement,setting,value
Cc1ccc(-c2n[nH]c(=O)[nH]2)cc1,GI50,Hs-578T,> 100 µM (inactive)
same,GI50,T47D,> 46.5 µM (inactive)
same,GI50,TK-10,> 100 µM (inactive)
same,GI50,MDA-MB-435,> 100 µM (inactive)
same,GI50,COLO 205,> 100 µM (inactive)
same,GI50,M14,> 100 µM (inactive)
same,GI50,EKVX,45.8 µM (inactive)
same,GI50,NCI-H23,> 100 µM (inactive)
same,GI50,Malme-3M,> 100 µM (inactive)
same,GI50,MCF7,> 100 µM (inactive)
same,GI50,HCC 2998,> 100 µM (inactive)
same,GI50,ACHN,> 100 µM (inactive)
same,GI50,SNB-19,> 100 µM (inactive)
same,GI50,A498,> 100 µM (inactive)
same,GI50,DU-145,> 100 µM (inactive)
same,GI50,MDA-N,> 100 µM (inactive)
same,GI50,PC-3,> 100 µM (inactive)
same,GI50,MOLT-4,> 100 µM (inactive)
same,GI50,KM12,> 100 µM (inactive)
same,GI50,UO-31,> 100 µM (inactive)
same,GI50,BT-549,> 100 µM (inactive)
same,GI50,OVCAR-8,> 100 µM (inactive)
same,GI50,OVCAR-5,> 100 µM (inactive)
same,GI50,HL-60,> 100 µM (inactive)
same,GI50,786-0,> 100 µM (inactive)
same,GI50,CAKI-1,> 100 µM (inactive)
same,GI50,NCI-H460,> 100 µM (inactive)
same,GI50,HOP-62,> 100 µM (inactive)
same,GI50,HOP-92,44.9 µM (inactive)
same,GI50,SK-MEL-28,> 100 µM (inactive)
same,GI50,SF-268,> 100 µM (inactive)
same,GI50,NCI-H522,> 100 µM (inactive)
same,GI50,SR,> 100 µM (inactive)
same,GI50,SK-MEL-5,> 100 µM (inactive)
same,GI50,SF-539,> 100 µM (inactive)
same,GI50,RXF 393,> 100 µM (inactive)
same,GI50,OVCAR-4,> 100 µM (inactive)
same,GI50,CCRF-CEM,> 100 µM (inactive)
same,GI50,HCT-116,> 100 µM (inactive)
same,GI50,HCT-15,> 100 µM
same,GI50,K562,> 100 µM (inactive)
same,GI50,HT-29,> 100 µM (inactive)
same,GI50,UACC-62,> 100 µM (inactive)
same,GI50,NCI/ADR-RES,> 100 µM (inactive)
same,GI50,SF-295,> 49 µM (inactive)
same,GI50,SW-620,> 100 µM (inactive)
same,GI50,NCI-H226,> 100 µM (inactive)
same,GI50,SK-MEL-2,> 100 µM (inactive)
same,GI50,U-251,> 100 µM (inactive)
same,GI50,OVCAR-3,> 100 µM (inactive)
same,GI50,MDA-MB-231,> 100 µM (inactive)
same,GI50,LOX IMVI,> 100 µM (inactive)
same,GI50,RPMI-8226,> 100 µM (inactive)
same,GI50,A549,> 100 µM (inactive)
same,GI50,SN12C,> 100 µM (inactive)
same,GI50,IGROV-1,> 100 µM (inactive)
same,GI50,UACC-257,> 66.1 µM (inactive)
same,GI50,SNB-75,> 100 µM (inactive)
